# In patent US10953015B2, “Use of adenosine receptor signaling to regulate P-gp function” (CORNELL UNIVERSITY, priority 2016, dated 2021):
# “Also recorded” adds a separate entry of the source.
# Legend:
# [1] = tested on: P-gp; assay: Epirubicin accumulation and P-gp staining in MCF7 cells (fluorescence microscopy); type: cell-based, human; conditions: 1 μM
# Description: MCF7 cells (human breast cancer cell line) were cultured in 24 well plates until they reached confluency. FIGS. 17A-17C are images of western blots of cells treated with vehicle control (i.e., DMSO) (“D”) or 1 μM of the broad spectrum AR agonist NECA (“N”) (FIG. 17A), 1 μM of the A2A AR agonist Lexiscan® (“L”) (FIG. 17B), or 1 μM of the A2B AR agonist BAY60 (“B”) (FIG. 17C), respectively for 24, 48, 72 hours. Cells were lysed with lysis buffer and expression levels of P-gp, MMP9, or VEGF analyzed by western blot. GAPDH was used as loading a control. FIG. 17D is a graph of experimental results showing that Lexiscan® down-regulates P-gp expression in MCF7 breast cancer cells. MCF7 breast cancer cells were treated with Lex (0.25 μM) concomitant with Rhodamine 123 (“Rho123”). […] Students T test, P<0.001. […] FIG. 17E is a fluorescence microscopy image showing MCF7 breast cancer cells grown on coverslips and treated with vehicle (DMSO, control), or A2 AR agonists, Lexiscan® (1 μM) or A1193 (1 μM) for 15 minutes in the presence of epirubicin. Cells were stained with an antibody to P-gp and mounted with DAPI. FIG. 17F is a graph of the fluorescent intensity quantified from FIG. 17E by measuring the mean fluorescent intensity (“MFI”) of epirubicin (pink) that is present in cell nuclei. ***=P<0.0001.
# To further assess the modulation of A2A AR agonists on P-gp expression in MCF7 cells, applicants evaluated the accumulation of the P-gp substrate epirubicin in MCF7 cells. MCF7 cells were treated with DMSO (control), 1 μM Lexiscan®, or 1 μM of the A2A AR agonist A1193. […] In this case, the down-regulation of P-gp expression is equivalent to down-regulation of its function (Kim et al., “A2A Adenosine Receptor Modulates Drug Efflux Transporter P-Glycoprotein at the Blood-Brain Barrier,” J Clin Invest. 126(5):1717-33 (2016), which is hereby incorporated by reference in its entirety).
# [2] = tested on: P-gp; assay: P-gp expression in Caco-2 human tumor cell line (IFA MFI, western blot); type: cell-based; conditions: 1 μM for 30 minutes (IFA), 1, 0.5, 0.1 μM (western blot)
# Description: FIG. 19A are fluorescence microscopy images of Caco-2 cells (originally isolated from a human primary colonic tumor) grown on coverslips and treated with Lexiscan® (1 μM) or A1193 (1 μM), or DMSO (vehicle) control for 30 minutes. Next, cells were fixed, permeabilized, and stained with an antibody to P-gp. After washing, cells were mounted with DAPI for nuclear staining. FIG. 19B is a graph of the MFI of P-gp. FIG. 19C is a graph of densitometric analysis of a western blot of Caco-2 cells treated with Lexiscan® in varying concentrations (1, 0.5, and 0.1 μM). Densitometric analysis was performed to quantify the amount of P-gp in western blot. Statistics: two tailed student's t test for FIG. 19B, *<0.5.
# Applicants also evaluated whether A2A AR agonists can modulate P-gp expression in a human tumor cell line, Caco-2 cells. Briefly, Caco-2 cells (originally isolated from a human tumor) were grown on coverslips and treated with Lexiscan®, A1193, or vehicle control for 30 minutes. Cells were then fixed, permeabilized, and stained with an antibody to P-gp. After washing, cells were mounted with DAPI for nuclear staining (FIG. 19A). The mean fluorescence intensity (MFI) of P-gp was quantified and graphed in FIG. 19B.
# [3] = target: T1, P-gp (Mus musculus, UniProt P21447); assay: Epirubicin brain accumulation assay; type: in vivo; conditions: mice; 10 mg/kg epirubicin i.v. with 0.05 mg/kg Lexiscan® or 50 mg/kg PSC833 for 15 minutes
# T1 construct: down-modulation of P-gp expression and function in brain vascular endothelial cells in WT mice; from tissue; host or cells: brain of WT mice
# T1 sequence (P21447 whole entry): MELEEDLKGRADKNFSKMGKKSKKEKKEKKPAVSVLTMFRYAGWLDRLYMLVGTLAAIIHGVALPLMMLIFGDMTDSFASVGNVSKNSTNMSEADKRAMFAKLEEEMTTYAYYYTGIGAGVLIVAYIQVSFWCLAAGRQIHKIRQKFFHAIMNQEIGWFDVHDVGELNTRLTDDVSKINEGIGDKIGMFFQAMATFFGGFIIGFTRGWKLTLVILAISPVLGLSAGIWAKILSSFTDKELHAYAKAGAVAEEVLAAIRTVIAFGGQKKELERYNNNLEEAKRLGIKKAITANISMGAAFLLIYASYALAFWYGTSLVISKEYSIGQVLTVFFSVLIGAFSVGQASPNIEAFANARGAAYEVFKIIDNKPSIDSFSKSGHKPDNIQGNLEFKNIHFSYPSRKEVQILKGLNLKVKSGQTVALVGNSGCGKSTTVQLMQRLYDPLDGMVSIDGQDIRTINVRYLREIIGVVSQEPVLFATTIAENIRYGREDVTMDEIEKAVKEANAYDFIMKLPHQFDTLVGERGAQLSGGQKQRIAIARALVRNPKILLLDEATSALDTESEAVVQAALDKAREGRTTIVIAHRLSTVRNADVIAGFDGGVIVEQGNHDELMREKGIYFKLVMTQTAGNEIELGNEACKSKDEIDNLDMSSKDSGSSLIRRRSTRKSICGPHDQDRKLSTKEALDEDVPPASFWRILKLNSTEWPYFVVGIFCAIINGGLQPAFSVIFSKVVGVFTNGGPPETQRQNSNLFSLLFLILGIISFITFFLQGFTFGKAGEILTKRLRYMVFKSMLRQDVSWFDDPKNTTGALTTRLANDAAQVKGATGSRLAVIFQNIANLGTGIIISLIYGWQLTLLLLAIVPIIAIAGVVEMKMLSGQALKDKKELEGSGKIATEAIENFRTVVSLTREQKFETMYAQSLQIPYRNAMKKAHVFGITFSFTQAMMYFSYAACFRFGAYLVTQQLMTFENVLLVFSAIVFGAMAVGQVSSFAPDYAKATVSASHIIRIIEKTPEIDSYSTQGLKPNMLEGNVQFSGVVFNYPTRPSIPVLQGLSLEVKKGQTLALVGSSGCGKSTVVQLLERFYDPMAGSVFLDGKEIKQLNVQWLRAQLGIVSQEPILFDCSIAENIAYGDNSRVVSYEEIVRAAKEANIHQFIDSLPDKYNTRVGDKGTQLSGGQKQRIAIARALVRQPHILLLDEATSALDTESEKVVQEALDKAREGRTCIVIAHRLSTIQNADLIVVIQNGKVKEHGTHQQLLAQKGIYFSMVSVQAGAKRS
# Description: FIG. 12A is a fluorescence microscopy image showing immunofluorescence images of brains from Lexiscan®-treated mice of WT brain at 15 and 30 minutes after Lexiscan® treatment. Frozen brain sections were stained with GLUT1 (red), or P-gp (green) and counterstained with DAPI (blue). FIG. 12B is a fluorescence microscopy image showing an enlarged image of FIG. 12A. FIG. 12C is a graph summarizing the experimental results of a brain epirubicin accumulation assay in the Lexiscan®- and vehicle-treated (control) mice. Briefly, 10 mg/kg of epirubicin was injected intravenously with or without 0.05 mg/kg of Lexiscan®. Mice were perfused with ice-cold PBS and sacrificed at different time points. The accumulation of epirubicin in the brain was measured using fluorometric excitation at 488 nm and emission at 590 nm. *P<0.05 (n=4, 2-tailed Student's t test). FIG. 12D are fluorescence microscopy images showing fluorescent microscopic analysis of epirubicin accumulation in the brains of mice treated with Lexiscan® or PSC833 (a functional P-gp inhibitor) compared with vehicle (control). 10 mg/kg of epirubicin was injected intravenously with or without 0.05 mg/kg of Lexiscan® or 50 mg/kg of PSC833 for 15 minutes. Mice were perfused with ice-cold PBS and sacrificed. Brain was sectioned for microscopic analysis for full-brain image, and focal zoomed image from cortex was laid as an inset. Epirubicin is in red, and nucleus was counterstained with DAPI (blue). FIG. 12E are graphs showing the quantified intensity of epirubicin from different regions of cortex (CTX), cerebellum (CRBL), and hippocampus (HPC) from brains of control, Lexiscan®-, or PSC833-injected animals and depicted as graphs. The scale bars indicate 100 μm in FIG. 12A; 50 μm in FIG. 12B, and 5 mm in FIG. 12D). ***P<0.001 (n=50, 2-tailed Student's t test).
# FIG. 14A is a western blot of P-gp and BCRP1 from mouse brain at 2 and 18 hours after NECA treatment. FIG. 14B are graphs showing the enumeration of the expression intensity of P-gp and BCRP1 from the western blots shown in FIG. 14A. The intensity of the bands from NECA treatment group was divided by that of DMSO control. […] For fluorescence microscopy, frozen brain sections were stained with GLUT1 (red) or P-gp (green) and counterstained with DAPI (blue). […] The accumulation of epirubicin in the brain was measured using fluorometry, with excitation at 488 nm and emission at 590 nm. *P<0.05 (n=4, 2-tailed Student's t test).
# For Lexiscan® study, 10 mg/kg of epirubicin was injected with or without Lexiscan® (0.05 mg/kg) at different time points, and mice were sacrificed. […] Samples were spun down at 17,000 g for 30 minutes, and the concentration for epirubicin was analyzed with fluorimetry with […].
# [4] = tested on: P-gp; assay: P-gp expression in HEK293T kidney cell line (IFA MFI, western blot); type: cell-based, human; conditions: Lexiscan® 1, 0.5, 0.1 μM, 15 minutes
# Description: FIGS. 20A and 20B illustrate that Lexiscan® downregulates P-gp expression in the kidney cell line HEK293T while treatment with antagonist SCH58261 blocks Lexiscan®'s effects. […] HEK293T cells were grown to confluency on coverslips, and treated with varying concentrations of Lexiscan® (1, 0.5, and 0.1 μM) for 15 minutes. Cells were permeabilized and then stained with an antibody to P-gp (C219) and visualized under a fluorescent microscope. FIG. 20B is a graph of the MFI of P-gp in FIG. 20A. DMSO vs. Lexiscan® (“Lex”), *=P<0.05, Lexiscan® (“Lex”)+SCH58261 (“SCH”), ****P<0.0001.
# HEK293T transformed kidney cells were treated with varying concentration of Lexiscan® (1, 0.5, 0.1 μM). Cells were lysed with lysis buffer ([…]), containing protease inhibitor cocktail. Samples were loaded on 7% SDS PAGE at 100V for 1 hour and transferred to nitrocellulose paper. The intensity of bands were analyzed by densitometry and plotted as a graph. Statistics: two-tailed student's t test: *=P<0.5, ****=P<0.0001.
# Applicants investigated whether A2A AR agonists could modulate P-gp expression in the HEK293T human kidney cell line. HEK293T cells were grown to confluency on coverslips and treated with varying concentrations of Lexiscan, Lexiscan® plus the A2A antagonist (SCH58261), or vehicle control for 15 minutes. Cells were then permeabilized, stained with an antibody to P-gp, and visualized under a fluorescent microscope (FIG. 20A). The mean fluorescence intensity (MFI) of P-gp was quantified and graphed in FIG. 20B.
# HEK293T cells were treated with various concentrations of Lexiscan, lysed, loaded onto an SDS-PAGE gel, transferred to a nitrocellulose membrane, and used for western blot analysis.
# [5] = cited from earlier work
compound,measurement,setting,value
"CCNC(=O)[C@H]1O[C@@H](n2cnc3c(NCC(c4ccccc4)c4ccccc4)nc(C(=O)NCCNC(=O)NC4CCN(c5ccccn5)CC4)nc32)[C@H](O)[C@@H]1O [A1193, 6-(2,2-diphenylethylamino)-9-((2R,3R,4S,5S)-5-(ethylcarbamoyl)-3,4-dihydroxytetrahydrofuran-2-yl)-N-(2-(3-(1-(pyridin-2-yl)piperidin-4-yl)ureido)ethyl)-9H-purine-2-carboxamide]",P-gp expression (antibody staining),[1]; 15 minutes,down-regulate P-gp expression
same,Epirubicin accumulation (MFI in cell nuclei),[1]; 15 minutes in the presence of epirubicin,retained significantly more epirubicin than those treated with control
same,P-gp expression,[2],downregulate P-gp expression
C/C=C/C[C@@H](C)C(=O)[C@H]1C(=O)N[C@@H](C(C)C)C(=O)N(C)CC(=O)N(C)[C@@H](CC(C)C)C(=O)N[C@@H](C(C)C)C(=O)N(C)[C@@H](CC(C)C)C(=O)N[C@@H](C)C(=O)N[C@H](C)C(=O)N(C)[C@@H](CC(C)C)C(=O)N(C)[C@@H](CC(C)C)C(=O)N(C)[C@@H](C(C)C)C(=O)N1C [PSC833],"Epirubicin fluorescent intensity in brain sections (cortex, cerebellum, hippocampus)",[3],Significantly lower epirubicin intensity; also recorded: lower epirubicin intensity than even the control treatment group
"Nc1nc2c(cnn2CCc2ccccc2)c2nc(-c3ccco3)nn12 [SCH58261, 2-(2-Furanyl)-7-(2-phenylethyl)-7H-pyrazolo[4,3-e][1,2,4]triazolo[1,5-c]pyrimidin-5-amine]",P-gp expression (MFI),[4],blocked the effects of Lexiscan®
"Nc1ncnc2c1ncn2[C@@H]1O[C@H](CO)[C@@H](O)[C@H]1O [adenosine, 9-β-D-Ribofuranosyl-9H-purin-6-amine]",half-life,[5],about 10 seconds
